From publication PMC2765968, “A novel inhibitor of Chlamydophila pneumoniae protein kinase D (PknD) inhibits phosphorylation of CdsD and suppresses bacterial replication” (BMC Microbiology, 2009)

Molecular target: T1, CdsN (GST-CdsN) (Chlamydia pneumoniae, UniProt A0ABN3YQA5)
T1 construct: gene yopN; GST tag kept, eluted from glutathione-agarose
T1 sequence (A0ABN3YQA5 1-442): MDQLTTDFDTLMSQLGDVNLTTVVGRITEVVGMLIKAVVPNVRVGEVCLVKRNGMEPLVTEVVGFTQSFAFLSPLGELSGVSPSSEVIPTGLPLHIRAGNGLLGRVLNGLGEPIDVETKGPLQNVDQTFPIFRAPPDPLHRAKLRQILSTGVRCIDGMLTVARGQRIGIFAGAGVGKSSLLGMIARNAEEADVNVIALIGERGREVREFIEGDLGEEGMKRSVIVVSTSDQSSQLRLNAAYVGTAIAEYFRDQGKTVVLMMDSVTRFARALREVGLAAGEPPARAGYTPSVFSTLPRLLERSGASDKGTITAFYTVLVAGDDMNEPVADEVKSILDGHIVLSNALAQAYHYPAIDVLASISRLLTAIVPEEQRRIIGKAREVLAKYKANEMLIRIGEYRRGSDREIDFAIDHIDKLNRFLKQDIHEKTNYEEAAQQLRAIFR
Assay: ATP hydrolysis, malachite green phosphate assay
Format: biochemical
Settings: […] ATP, […] Tris-HCl pH […] MgCl2, […] KCl, […] °C, […] min

## Nc1ncnc2c1ncn2[C@@H]1O[C@H](COP(=O)(O)OP(=O)(O)OP(=O)(O)O)[C@@H](O)[C@H]1O [ATP]
  ATP hydrolysis, malachite green phosphate assay: ATP hydrolysis by GST-CdsN purified from glutathione-agarose beads was measured using a malachite green assay
